From patent US10183015B2, “Heterocyclic compounds and methods of use” (Medivation Technologies LLC, priority 2015, dated 2019)
“And” between values parts separate entries of the source, which are not always exact repeats. Equal entries are not always repeated.

Legend:
Format in all cases: in vivo
[1] = test system: diet-induced NASH obese insulin resistant mice; experiment: DIN mouse model: liver weight and liver lipid levels; design: liver weight: unit not given here; settings: 20 mg/kg
Protocol: Male C57Bl/6J mice (8 weeks old) were housed in enriched ventilated cages (31×12.5×12.7 cm) throughout the experimental phase. Animals' cages litters were changed at least once a week. Animal were housed 5 per cage on inverted 12-hour light cycle (at 09:00 am lights off), 22±2° C. and 55±10% relative humidity. The acclimation period was 20 days. During the acclimation period, all mice were fed a standard diet (RM1 (E) 801492, SDS) and tap water ad libitum. After the acclimation period, mice were fed with the DIN diet (60% fat, cholesterol enriched) and fructose-enriched tap water ad libitum until the end of the experiment.
At 6 weeks of diet, mice were 4-hour fasted (09:00 am to 1:00 pm) and blood (150 μl/EDTA) was collected at 01:00 pm by retro-orbital bleeding under isoflurane anesthesia. Mice were then allocated in 2 homogenous groups (n=12/group) according to their plasma levels of ALT (average levels: 685U/L), AST (average levels: 627U/L) and HOMA-IR index (average value: 4.7), into 2 homogenous groups (see values at day 0 in Tables 15A and 15B ALT/AST and Tables 16A and 16B for HOMA-IR). Mice were then treated once daily by oral gavage with vehicle (Group 1) or Compound #37 at 20 mg/kg (Group 2) for 70 days.
To investigate whether Compound #37 improves pre-existing steatosis/NASH pathology, a study was conducted using a 16-week diet-induced NASH mouse model. In this model, mice develop steatosis that progresses with inflammation and fibrosis that mimic many of the observed pathologies in human nonalcoholic fatty liver disease (NAFLD) and NASH (Hebbard & George, 2010). For 6 weeks, mice were fed a high-fat, high-cholesterol diet and provided drinking water containing fructose to induce liver pathology (Charlton et al, 2011). After 6 weeks, the mice were divided into 2 groups with similar mean aspartate aminotransferase (AST) and alanine aminotransferase (ALT) values (n=12 mice), although it should be noted that AST and ALT concentrations within both groups were higher and with greater variability than anticipated (e.g., mean ALT 677 U/L [SD, 401 U/L] in the vehicle control group and 693 U/L [SD, 365 U/L] in the Compound #37 group). After the animals were divided into 2 groups, the diet was continued for 10 additional weeks during which time 1 group received vehicle and the other was treated with 20 mg/kg/day Compound #37.

SCAP = experiment: Short-term Paigen-diet NASH mouse model: hepatic SCAP gene expression (RT-qPCR); settings: liver, 21 days; for DDct: SCAP Dct relative to vehicle mean; for Dct: SCAP minus 18S; for 2DDct: SCAP relative expression to vehicle group, normalized to 18S; for SCAP: raw RT-qPCR value
Protocol: To investigate whether Compound #37 prevents the development of pathology associated with NASH and steatosis in an acute exploratory disease model, a study was conducted using a diet-induced acute liver steatosis model in mice. As described below, in this study, C57BL/6J mice were initiated on the Paigen diet and simultaneously treated with Compound #37 (5, 20, and 40 mg/kg/day) or vehicle control (20% HPβCD 10 mL/kg/day) by oral gavage for 21 days.
After acclimation, 8-week old male C57Bl/6J mice (Charles River) weighing about 25 g were randomized in 4 groups according their body weight and treated once daily around noon by oral gavage with vehicle, or Compound #37 at various for 21 days as follows: Group 1: vehicle-20% (2-hydroxypropyl)-β-cyclodextrin (HP-β-CD) (n=10); Group 2: Compound #37, 5 mg/kg (n=10) Group 3: Compound #37, 20 mg/kg (n=10) Group 4: Compound #37, 40 mg/kg (n=10). During the treatment period, body weight and food intake (measured over 24h) were measured 3 times per week and once a week, respectively. During the acclimation, all mice were fed a standard diet (Special Diets Services RM1 (E), product no. 801492) and tap water ad libitum. After the acclimation period, mice were fed until the end of the experiment with a 60% high fat Paigen diet (60 kcal % fat, 1.25% cholesterol, and 0.5% cholate; D11061901, Research Diet) and tap water ad libitum.
Gene expression analysis. Hepatic expression levels of genes involved in lipid metabolism (FAS, SREBP1, ACC1, SCD1), cholesterol metabolism (HMG-CoAR, LDLR), SREBP proteolysis (SCAP, INSIG1), ER stress (PERK), oxidative stress (NRF2), inflammation (MCP-1), and fibrosis (collagen 1α1) were quantified by RTqPCR. Expression level was normalized to 18S gene expression and relative expression to vehicle group was calculated with the […] method.

[2] = ob/ob mice: tolerability, weight gain and food intake; settings: over 8 weeks, all treatment groups
Protocol: Groups of mice were either untreated (group 1) or treated for 8 weeks with vehicle (group 2), or with Compound #37 at 5 mg/kg (group 3), 10 mg/kg (group 4), or 20 mg/kg (group 5). Treatment was daily by oral gavage in vehicle (20% HPβCD). Values are presented as mean±standard error of the mean (sem). A t test was performed to compare the untreated group and the vehicle group. Then Compound #37-treated groups were compared to the vehicle-treated group with a 1-way ANOVA+Dunnett's post-test. […] For each test, a p<0.05 was considered significant. Of note, animal #39, group 1 was excluded from the statistical analysis, due to low values for all parameters measured. Some other values were considered as out-liners and excluded from the statistical analysis when the value was far below the mean minus 2 SD. Excluded values are marked with an asterisk in Tables 21-23.
These plasma lipid results are consistent with SCAP/SREBP pathway inhibition seen in tissue-specific SCAP knockout mice (Horton et al, 2002) and with inhibition of SREBP in vivo (Moon et al, 2012).

[3] = Compound #37 5 mg/kg, group mean, n=10
[4] = Compound #37 5 mg/kg, individual animals, 5 mg/kg
[5] = Compound #37 20 mg/kg, group mean, n=6
[6] = Compound #37 20 mg/kg, individual animals, 20 mg/kg

SMILES: CC(C)Cc1cc(-c2nc(-c3ccc(NS(=O)(=O)C(F)(F)F)cc3Cl)cs2)ccn1 [Compound 37, N-(3-chloro-4-(2-(2-isobutylpyridin-4-yl)thiazol-4-yl)phenyl)-1,1,1-trifluoromethanesulfonamide]
- Liver weight increase ([1]; 70 days): 21%
- Hepatic total cholesterol levels increase ([1]; 70 days, p<0.05 vs. vehicle): 17%
- liver cholesterol ([1]; group mean, n 11): 28.2 µg/mg
- liver fatty acids ([1]; group mean, n 11): 63.2 nmol/mg
- liver triglycerides ([1]; group mean, n 11): 133.8 µg/mg
- liver weight ([1]; group mean, n 11): 2.56
- liver cholesterol ([1]; individual animals): 27.4 µg/mg and 32.2 µg/mg and 25.8 µg/mg and 28.4 µg/mg and 28.3 µg/mg and 27.1 µg/mg and 29.9 µg/mg and 20.7 µg/mg and 31.3 µg/mg and 34.0 µg/mg and 25.3 µg/mg
- liver fatty acids ([1]; individual animals): 72.2 nmol/mg and 67.2 nmol/mg and 56.2 nmol/mg and 82.8 nmol/mg and 56.8 nmol/mg and 47.8 nmol/mg and 68.4 nmol/mg and 43.9 nmol/mg and 70.0 nmol/mg and 76.7 nmol/mg and 53.2 nmol/mg
- liver triglycerides ([1]; individual animals): 262.5 µg/mg and 203.3 µg/mg and 72.2 µg/mg and 162.3 µg/mg and 101.9 µg/mg and 53.6 µg/mg and 178.1 µg/mg and 48.9 µg/mg and 91.5 µg/mg and 195 µg/mg and 102.6 µg/mg
- liver weight ([1]; individual animals): 3.24 and 2.72 and 1.97 (2×) and 2.74 and 2.39 and 2.54 and 2.44 and 2.67 and 3.05 and 2.40
- DDct (SCAP; [3]): 0.19
- DDct (SCAP; [4]): −0.7 and 0.72 and −0.1 and −0.18 and 1.21 and 0.7 and 0.27 and −0.21 and −0.02 and 0.17
- DDct (SCAP; [5]): 0.07
- DDct (SCAP; [6]): 0.6 and 0.83 and 0.33 and −1.29 and 0.9 and −0.94
- Dct (SCAP; [3]): 12.8
- Dct (SCAP; [4]): 11.96 and 13.38 and 12.56 and 12.48 and 13.87 and 13.36 and 12.93 and 12.45 and 12.64 and 12.83
- Dct (SCAP; [5]): 12.7
- Dct (SCAP; [6]): 13.26 and 13.49 and 12.99 and 11.37 and 13.56 and 11.72
- 2DDct (SCAP; [3]): 0.94
- 2DDct (SCAP; [4]): 1.62 and 0.61 and 1.07 and 1.13 and 0.43 and 0.62 and 0.83 and 1.16 and 1.01 and 0.89
- 2DDct (SCAP; [5]): 1.15
- 2DDct (SCAP; [6]): 0.66 and 0.56 and 0.79 and 2.44 and 0.54 and 1.92
- SCAP (SCAP; [3]): 25.1
- SCAP (SCAP; [4]): 25.42 and 26.49 and 24.17 and 25.83 and 25.9 and 26.71 and 24.53 and 24.24 and 23.78 and 23.95
- SCAP (SCAP; [5]): 24.9
- SCAP (SCAP; [6]): 26.17 and 25.78 and 25.19 and 24.4 and 25.05 and 22.98
- tolerability [2]: generally well tolerated
